The values that follow come from publication PMC10455244, “Alpha-Mangostin: A Potent Inhibitor of TRPV3 and Pro-Inflammatory Cytokine Secretion in Keratinocytes” (International Journal of Molecular Sciences, 2023).

Experiment [1] has as its target T1, TRPV4 (Homo sapiens, UniProt Q9HBA0).
T1 construct: host or cells: HEK 293T (transient transfection)
In words: Whole-cell patch-clamp, GSK101-activated TRPV4 current in transfected HEK 293T cells. It is filed as cell-based. The protocol:
(§1) Next, we examined the impact of alpha-mangostin on other TRP channels. TRPV4- and TRPA1 trasfected HEK 293T were activated using 300 nM GSK-1016790A (GSK101) and 100 µM allyl isothiocyanate (AITC), respectively. […] The dose–response curves were obtained by applying various concentrations of alpha-mangostin (Figure 2C).
(§2) Figure 2 Alpha-mangostin (α-MG) inhibited the TRPV3 current more effectively than other TRP channels. (A) Representative I–V curves from whole-cell recordings illustrate the inhibitory effect of 0.3 µM alpha-mangostin on TRPV4 and TRPA1 channels (GSK101: GSK-1016790A, a TRPV4 agonist; RR: ruthenium red, a TRP inhibitor; AITC: allyl isothiocyanate, a TRPA1 agonist; A967: A-967079, a TRPA1 inhibitor). Currents were elicited with ramp pulses from −100 to +100 mV over 1 s, which were repetitively applied every 20 s; the holding potential was set at 0 mV. (B) Summary of the inhibition percentage after 0.3 µM alpha-mangostin treatment at −100 mV. […]
(§3) In the whole-cell configuration, voltage ramps from −100 to +100 mV over 1 s were applied every 20 s and the holding potential was set at 0 mV. Sampling at 10 kHz and low-pass filtering at 5 kHz (w-c) were applied for all recorded currents. Recorded data were analyzed using Clampfit ver. […]

Experiment [2] has as its target T2, TRPA1 (Homo sapiens, UniProt O75762).
T2 construct: host or cells: HEK 293T (transient transfection)
In words: Whole-cell patch-clamp, AITC-activated TRPA1 current in transfected HEK 293T cells. It is filed as cell-based. Conditions: 100 µM AITC. The protocol:
as §1, §2, §3

The test system of experiment [3] is TRPV3 (G573C)-expressing HEK 293T cells. In words: cells. Particulars: Homo sapiens, 24 h, read-out: Cell viability (normalized O.D., compared with mock cells). The experiment is classed as cell-based. From the text: (§4) Figure 4 Alpha-mangostin inhibited the activity of hyperactive TRPV3 mutant channels and rescued mutation-induced cell death. (A) Alpha-mangostin inhibited the channel current in representative TRPV3 (G573S)- and TRPV3 (G573C)-expressing HEK 293T cells. […] Currents were normalized to the response at −100 mV before adding alpha-mangostin. (C) Alpha-mangostin inhibited TRPV3-mediated intracellular calcium increase in TRPV3 (G573S)-expressing HEK 293T cells. […] The bar graph on the right summarizes the change in the intracellular calcium rise inhibited by alpha-mangostin. Cells were perfused with calcium-free solutions containing 0 or 1 µM alpha-mangostin or 10 µM 74a before changing to 1.3 mM Ca^2+ solutions containing the same substance concentration. (D) Alpha-mangostin inhibited TRPV3-mediated intracellular calcium increase in TRPV3 (G573C)-expressing HEK 293T cells. […] The bar graph on the right summarizes the change in the intracellular calcium rise inhibited by alpha-mangostin. Cells were perfused with calcium-free solutions containing 0 or 1 µM alpha-mangostin or 10 µM 74a before changing to 1.3 mM Ca^2+ solutions containing the same substance concentration. […]
(§5) The cell counting kit-8 (CCK8; Dojindo Laboratories, Kumamoto, Japan) was employed for viability assay. […] The optical density (O.D., 450 nm) of each well was measured after incubating the cells with CCK-8 solution ([…]) for 2 h. […]

For experiment [4], the system named is TRPV3 (G573S)-expressing HEK 293T cells. In words: cells. It is filed as cell-based. Particulars: Homo sapiens, 24 h, read-out: Cell viability (normalized O.D., compared with mock cells).
Text: as §4, §5

For experiment [5], the system named is TRPV1. Conditions: read-out: IC50 (µM), channel inhibited TRPV1; cited from earlier work.

T2 sequence (O75762 whole entry, species assumed): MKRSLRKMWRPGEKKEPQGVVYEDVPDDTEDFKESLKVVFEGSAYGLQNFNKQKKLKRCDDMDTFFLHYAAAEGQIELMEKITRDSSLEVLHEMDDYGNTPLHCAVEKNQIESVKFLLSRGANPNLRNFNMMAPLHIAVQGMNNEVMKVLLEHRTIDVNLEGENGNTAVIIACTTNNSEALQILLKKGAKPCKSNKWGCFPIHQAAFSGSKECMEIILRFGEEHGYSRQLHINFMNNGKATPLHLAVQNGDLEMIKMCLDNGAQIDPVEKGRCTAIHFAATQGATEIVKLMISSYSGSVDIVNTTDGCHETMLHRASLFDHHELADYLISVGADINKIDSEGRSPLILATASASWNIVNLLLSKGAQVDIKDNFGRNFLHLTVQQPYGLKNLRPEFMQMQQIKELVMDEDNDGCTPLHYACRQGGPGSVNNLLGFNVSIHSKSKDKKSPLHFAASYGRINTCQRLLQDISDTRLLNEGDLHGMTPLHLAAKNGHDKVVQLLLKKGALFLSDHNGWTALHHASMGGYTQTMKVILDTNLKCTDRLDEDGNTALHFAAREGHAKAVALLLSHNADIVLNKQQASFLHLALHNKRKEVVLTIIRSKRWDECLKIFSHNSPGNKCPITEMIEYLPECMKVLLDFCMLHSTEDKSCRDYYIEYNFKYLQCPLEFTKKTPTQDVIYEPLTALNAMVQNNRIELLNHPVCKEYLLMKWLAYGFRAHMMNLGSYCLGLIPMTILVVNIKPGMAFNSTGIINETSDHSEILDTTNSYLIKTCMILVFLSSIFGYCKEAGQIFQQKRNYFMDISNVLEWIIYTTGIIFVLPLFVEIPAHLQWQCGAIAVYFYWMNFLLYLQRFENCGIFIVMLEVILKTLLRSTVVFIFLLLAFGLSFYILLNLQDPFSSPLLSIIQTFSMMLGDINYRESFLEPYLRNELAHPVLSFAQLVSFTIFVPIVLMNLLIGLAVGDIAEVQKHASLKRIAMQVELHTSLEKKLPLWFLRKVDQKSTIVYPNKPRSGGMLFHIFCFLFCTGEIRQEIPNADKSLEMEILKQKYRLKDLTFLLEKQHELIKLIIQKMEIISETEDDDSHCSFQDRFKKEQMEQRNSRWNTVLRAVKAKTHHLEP
T1 sequence (Q9HBA0 whole entry, species assumed): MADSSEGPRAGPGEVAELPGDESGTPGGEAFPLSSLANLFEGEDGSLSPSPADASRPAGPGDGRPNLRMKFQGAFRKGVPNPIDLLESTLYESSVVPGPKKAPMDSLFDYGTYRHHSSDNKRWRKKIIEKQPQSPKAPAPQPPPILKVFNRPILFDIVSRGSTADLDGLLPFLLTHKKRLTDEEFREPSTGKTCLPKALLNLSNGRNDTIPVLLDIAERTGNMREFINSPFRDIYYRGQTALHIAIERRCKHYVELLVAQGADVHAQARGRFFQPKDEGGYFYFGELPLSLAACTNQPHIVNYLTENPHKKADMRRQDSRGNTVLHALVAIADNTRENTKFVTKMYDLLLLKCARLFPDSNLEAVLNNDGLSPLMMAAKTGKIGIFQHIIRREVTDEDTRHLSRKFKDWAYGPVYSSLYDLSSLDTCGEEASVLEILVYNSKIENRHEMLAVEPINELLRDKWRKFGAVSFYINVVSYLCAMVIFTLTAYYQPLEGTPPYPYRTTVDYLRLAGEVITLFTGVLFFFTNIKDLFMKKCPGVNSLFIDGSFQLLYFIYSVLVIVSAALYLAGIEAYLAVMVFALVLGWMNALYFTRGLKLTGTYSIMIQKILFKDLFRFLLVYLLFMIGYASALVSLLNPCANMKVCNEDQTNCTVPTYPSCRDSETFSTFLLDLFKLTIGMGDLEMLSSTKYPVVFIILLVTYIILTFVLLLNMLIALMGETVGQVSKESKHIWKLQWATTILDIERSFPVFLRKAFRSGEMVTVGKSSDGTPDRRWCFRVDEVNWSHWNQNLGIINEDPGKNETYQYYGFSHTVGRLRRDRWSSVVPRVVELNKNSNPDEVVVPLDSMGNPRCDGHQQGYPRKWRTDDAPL

The inhibition is the percentage by which the read-out fell short of the control. By IC50 is commonly meant the concentration that inhibits the measured activity by half. For orientation: viability means a per cent measure of how many cells are alive, often set against a control. In the case of `COc1c(O)cc2oc3cc(O)c(CC=C(C)C)c(O)c3c(=O)c2c1CC=C(C)C` [Alpha-mangostin], the inhibition at 0.3 µM is 16.1% in experiment [1] (HEK-293T, 0.3 µM, 300 nM GSK101, −100 mV, read-out: Inhibition percentage of TRPV4 current) and 24.8% in experiment [2] (HEK-293T, 0.3 µM, −100 mV, read-out: Inhibition percentage of TRPA1 current). For the same compound, the half-inhibitory concentration (IC50) is 8.47 ± 1.72 µM in experiment [1] (transfected HEK 293T, 300 nM GSK101, read-out: IC50, inhibition of TRPV4 current); 5.09 ± 2.21 µM in experiment [2] (transfected HEK 293T, read-out: IC50, inhibition of TRPA1 current); 0.43 ± 0.27 µM in experiment [5]. Moreover, the results for the viability at 1 µM in experiment [3] and in experiment [4] were 93.5% and 86.8%, respectively.
